Measurements from patent publication US7053234B2 (Amgen Inc., priority 2000, dated 2006).
pIC50: −log10 of the molar value. Converted amounts (≈) assume the structure as drawn.

Tests used:
[1] = target: T1, Sigma^70 saturated E. coli RNA Polymerase (Escherichia coli, UniProt P0A8T7+P0A8V2); experiment: RNA polymerase inhibition assay (E. coli enzyme); format: biochemical; conditions: Table 1; enzyme not named, method uses E. coli RNA polymerase; read-out: IC50
T1 construct: purchased Epicenter
Experimental: The compounds of the present invention can be evaluated for antibacterial activity in a variety of assay formats known to those of skill in art. The specific assays used to select the most appropriate compound for use will typically depend on the targeted bacteria or infection. One common assay involves evaluation of the compounds as RNA polymerase inhibitors. In this assay, buffer (250 mM KCl, 5% Glycerol, 10 mM MgCl2, 0.1 mg/ml BSA) is combined with 6 mM B-M.E., PT5 DNA template, and 1.3 ug/rxn Sigma^70 saturated E. coli RNA Polymerase (Epicenter). The compound is then added in a manner not to exceed 5% DMSO. Nucleotide triphosphates are then added at the following concentration: 250 uM ATP, […] and UTP with 100 uM cold CTP and 50 uM alpha ^32P CTP. The mixture is incubated for 10 min at about 37° C. A [2×] loading buffer is added and the mixture is then run on a 6% urea denaturing PAGE until bromophenol blue reaches the edge of plate. The gel is soaked (about 20 minutes in 10% MeOH and 10% acetic acid, to remove urea), then dried (about 55 minutes at about 85° C. (BioRad Gel Drier)) and exposed to a Phospho Imaging Plate for 1 hour. The plate is then read on a Fujix Bas1000 Imaging System and quantified using MacBas v2.0 software. An IC50 (in uM) can be calculated as the concentration of a drug which reduces the enzyme activity to 50% of the control.

[2] = tested on: B. su; experiment: MIC determination, B. su; format: cell-based; conditions: Table 1, 16 hours at 37° C. in LB medium, read-out: B. su (bacterial MIC)
Experimental: (§1) For MIC determinations for selected bacteria, log phase growing bacteria are re-suspended at 1×10^5 bacteria per mL in LB medium. The compound is added and two-fold dilutions are made. The final volume in the 96-well plate is about 100 uL. The plate is incubated at 37° C. in the dark with shaking. After 16 hours of incubation, growth is monitored by reading A600 or by visual inspection. MIC is defined as the minimum concentration of drug resulting in inhibition of visible growth of bacterial under the conditions described (above) in National Committee for Clinical Laboratory Standards 1993. Methods for dilution antimicrobial susceptibility tests for bacteria that grow aerobically. Approved standard M7-A3; National Committee for Clinical Laboratory Standards: Villanova, Pa.

[3] = tested on: S. aureus; experiment: MIC determination, S. aureus; format: cell-based; conditions: Staphylococcus aureus; Table 1; MIC, 16 hours at 37° C. in LB medium; read-out: S. au (bacterial MIC)
Experimental: The compound is added and two-fold dilutions are made. The final volume in the 96-well plate is about 100 uL. The plate is incubated at 37° C. in the dark with shaking. After 16 hours of incubation, growth is monitored by reading A600 or by visual inspection. […] Methods for dilution antimicrobial susceptibility tests for bacteria that grow aerobically. Approved standard M7-A3; National Committee for Clinical Laboratory Standards: Villanova, Pa.

[4] = tested on: E. coli (tolC); experiment: MIC determination, E. coli (tolC); format: cell-based; conditions: Escherichia coli, 16 h, read-out: E. c(tolC) (bacterial MIC)
Experimental: as §1

T1 sequence (P0A8V2 whole entry): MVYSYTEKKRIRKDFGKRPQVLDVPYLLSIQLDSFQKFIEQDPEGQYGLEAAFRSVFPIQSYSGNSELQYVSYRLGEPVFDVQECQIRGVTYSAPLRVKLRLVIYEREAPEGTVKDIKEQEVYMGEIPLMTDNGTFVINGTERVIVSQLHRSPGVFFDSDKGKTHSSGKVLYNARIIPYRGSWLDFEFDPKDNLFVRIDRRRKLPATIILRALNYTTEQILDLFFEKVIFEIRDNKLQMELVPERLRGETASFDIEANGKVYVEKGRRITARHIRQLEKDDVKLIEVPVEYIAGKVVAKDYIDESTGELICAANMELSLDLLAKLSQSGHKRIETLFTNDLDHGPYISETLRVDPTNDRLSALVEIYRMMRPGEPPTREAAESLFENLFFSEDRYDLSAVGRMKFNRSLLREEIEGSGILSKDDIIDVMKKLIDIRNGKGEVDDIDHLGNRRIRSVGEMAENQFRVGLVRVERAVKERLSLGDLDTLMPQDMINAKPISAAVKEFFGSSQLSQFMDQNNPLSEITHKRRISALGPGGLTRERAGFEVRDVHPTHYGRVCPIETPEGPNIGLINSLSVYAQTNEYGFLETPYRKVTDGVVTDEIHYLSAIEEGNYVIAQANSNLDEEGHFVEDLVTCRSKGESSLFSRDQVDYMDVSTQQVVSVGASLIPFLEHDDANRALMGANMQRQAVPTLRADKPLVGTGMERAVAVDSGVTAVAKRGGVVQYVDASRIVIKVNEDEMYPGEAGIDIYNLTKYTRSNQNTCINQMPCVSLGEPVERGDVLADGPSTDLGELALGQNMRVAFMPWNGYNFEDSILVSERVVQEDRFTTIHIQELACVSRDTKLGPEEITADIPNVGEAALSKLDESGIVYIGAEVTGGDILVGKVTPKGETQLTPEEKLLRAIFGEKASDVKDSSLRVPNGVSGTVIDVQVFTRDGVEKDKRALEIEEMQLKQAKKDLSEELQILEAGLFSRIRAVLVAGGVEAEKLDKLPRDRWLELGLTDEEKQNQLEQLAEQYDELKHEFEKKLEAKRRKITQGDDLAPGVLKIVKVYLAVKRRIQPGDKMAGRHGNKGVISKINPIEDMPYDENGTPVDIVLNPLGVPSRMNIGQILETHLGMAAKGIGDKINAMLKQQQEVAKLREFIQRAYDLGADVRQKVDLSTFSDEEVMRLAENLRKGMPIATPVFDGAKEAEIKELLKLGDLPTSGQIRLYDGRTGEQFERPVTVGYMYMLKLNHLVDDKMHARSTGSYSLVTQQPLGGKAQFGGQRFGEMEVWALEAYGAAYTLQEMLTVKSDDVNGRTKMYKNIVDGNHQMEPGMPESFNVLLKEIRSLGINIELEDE
T1 sequence (P0A8T7 whole entry): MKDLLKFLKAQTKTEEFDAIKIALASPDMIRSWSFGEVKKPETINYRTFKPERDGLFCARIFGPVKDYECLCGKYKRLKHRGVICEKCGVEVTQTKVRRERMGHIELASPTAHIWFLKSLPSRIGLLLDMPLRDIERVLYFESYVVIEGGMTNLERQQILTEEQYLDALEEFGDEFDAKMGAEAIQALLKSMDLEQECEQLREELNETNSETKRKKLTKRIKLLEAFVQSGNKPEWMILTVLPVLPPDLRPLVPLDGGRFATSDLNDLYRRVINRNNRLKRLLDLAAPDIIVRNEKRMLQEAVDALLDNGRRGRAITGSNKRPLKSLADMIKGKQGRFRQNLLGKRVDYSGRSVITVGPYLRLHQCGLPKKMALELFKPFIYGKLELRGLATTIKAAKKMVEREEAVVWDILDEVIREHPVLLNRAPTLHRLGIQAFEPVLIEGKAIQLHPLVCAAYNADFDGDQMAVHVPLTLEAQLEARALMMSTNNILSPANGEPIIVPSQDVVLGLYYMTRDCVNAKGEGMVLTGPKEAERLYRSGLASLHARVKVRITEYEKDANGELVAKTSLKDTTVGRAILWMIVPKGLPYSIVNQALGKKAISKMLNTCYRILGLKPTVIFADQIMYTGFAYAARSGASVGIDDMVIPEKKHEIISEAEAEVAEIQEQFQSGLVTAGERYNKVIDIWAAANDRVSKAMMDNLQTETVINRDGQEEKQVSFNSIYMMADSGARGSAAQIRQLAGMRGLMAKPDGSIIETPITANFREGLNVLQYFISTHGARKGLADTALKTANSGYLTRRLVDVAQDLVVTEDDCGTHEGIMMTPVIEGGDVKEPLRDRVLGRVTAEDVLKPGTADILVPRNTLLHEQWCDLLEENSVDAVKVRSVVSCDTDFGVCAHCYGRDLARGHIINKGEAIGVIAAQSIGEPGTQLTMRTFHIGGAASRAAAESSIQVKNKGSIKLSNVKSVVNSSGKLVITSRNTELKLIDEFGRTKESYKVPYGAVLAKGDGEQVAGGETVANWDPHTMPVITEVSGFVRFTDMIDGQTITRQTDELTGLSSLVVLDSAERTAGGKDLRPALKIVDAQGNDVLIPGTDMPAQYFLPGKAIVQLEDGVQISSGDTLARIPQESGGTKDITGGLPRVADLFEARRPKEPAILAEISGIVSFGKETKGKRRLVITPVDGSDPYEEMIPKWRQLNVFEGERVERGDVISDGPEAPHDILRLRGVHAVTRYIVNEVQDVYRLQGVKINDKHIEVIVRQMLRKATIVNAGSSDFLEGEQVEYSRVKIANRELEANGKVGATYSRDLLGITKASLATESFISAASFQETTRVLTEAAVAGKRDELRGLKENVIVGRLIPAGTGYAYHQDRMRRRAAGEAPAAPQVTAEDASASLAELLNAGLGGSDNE
T1 sequence (P0A7Z4 whole entry partner): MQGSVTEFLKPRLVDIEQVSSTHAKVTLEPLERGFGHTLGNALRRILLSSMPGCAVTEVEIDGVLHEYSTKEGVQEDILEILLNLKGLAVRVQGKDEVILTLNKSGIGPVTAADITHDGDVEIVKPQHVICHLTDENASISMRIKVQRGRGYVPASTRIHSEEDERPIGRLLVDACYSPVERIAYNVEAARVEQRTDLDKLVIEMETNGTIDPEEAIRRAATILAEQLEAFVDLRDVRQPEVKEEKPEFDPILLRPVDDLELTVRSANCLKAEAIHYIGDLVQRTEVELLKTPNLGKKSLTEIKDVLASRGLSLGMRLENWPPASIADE
T1 sequence (P0A800 whole entry partner): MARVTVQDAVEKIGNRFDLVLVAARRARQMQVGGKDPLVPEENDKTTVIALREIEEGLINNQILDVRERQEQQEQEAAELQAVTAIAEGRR
T1 sequence (P00579 whole entry partner): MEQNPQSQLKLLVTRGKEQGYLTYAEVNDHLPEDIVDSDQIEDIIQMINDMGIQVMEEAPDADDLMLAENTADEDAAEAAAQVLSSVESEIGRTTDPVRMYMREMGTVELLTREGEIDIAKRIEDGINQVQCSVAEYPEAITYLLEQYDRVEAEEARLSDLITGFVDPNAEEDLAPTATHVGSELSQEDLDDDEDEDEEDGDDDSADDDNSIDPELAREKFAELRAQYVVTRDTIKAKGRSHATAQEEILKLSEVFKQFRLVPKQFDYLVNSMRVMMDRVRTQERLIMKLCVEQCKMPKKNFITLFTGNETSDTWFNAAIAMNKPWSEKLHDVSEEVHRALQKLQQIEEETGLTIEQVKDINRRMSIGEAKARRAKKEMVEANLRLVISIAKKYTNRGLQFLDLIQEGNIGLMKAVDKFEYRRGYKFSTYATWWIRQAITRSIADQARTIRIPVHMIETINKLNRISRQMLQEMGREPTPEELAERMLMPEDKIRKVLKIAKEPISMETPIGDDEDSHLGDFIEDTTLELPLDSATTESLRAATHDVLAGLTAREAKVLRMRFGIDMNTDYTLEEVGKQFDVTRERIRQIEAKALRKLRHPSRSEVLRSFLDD

| SMILES | pIC50 [1] | MIC [2] | MIC [3] | MIC [4] |
| --- | --- | --- | --- | --- |
| ON=C(Nc1cccc(F)c1)c1cccc(C(F)(F)F)c1 [R′=3-CF3, R″=H, R′″=3-F] | 4.30 to 5.00 | 40 to 125 µM (≈ 11.9 to 37.3 µg/mL) | 40 to 125 µM (≈ 11.9 to 37.3 µg/mL) | < 40 µM |
| ON=C(Nc1cccc(Oc2ccccc2)c1)c1cccc(C(F)(F)F)c1 [R′=3-CF3, R″=H, R′″=3-OPh] | < 4.30 | < 40 µM | < 40 µM | < 40 µM |
| ON=C(Nc1cccc(F)c1)c1ccc(Cl)c(Cl)c1 [R′=3-Cl, R″=4-Cl, R′″=3-F] | 4.30 to 5.00 | 40 to 125 µM (≈ 12 to 37.4 µg/mL) | 40 to 125 µM (≈ 12 to 37.4 µg/mL) | < 40 µM |
| ON=C(Nc1cccc(Cl)c1)c1cccc(OC(F)(F)F)c1 [R′=3-OCF3, R″=H, R′″=3-Cl] | 4.30 to 5.00 | < 40 µM | 40 to 125 µM (≈ 13.2 to 41.3 µg/mL) | < 40 µM |
| ON=C(Nc1cccc(Cl)c1)c1ccc(Cl)cc1 [R′=4-Cl, R″=H, R′″=3-Cl] | < 4.30 | 40 to 125 µM (≈ 11.2 to 35.1 µg/mL) | 40 to 125 µM (≈ 11.2 to 35.1 µg/mL) | < 40 µM |
